Measurements published in ChEMBL document CHEMBL3885881, “DrugMatrix”.

Organism: Rattus norvegicus
Test: DrugMatrix - Regimen: Daily Repeat
Type: toxicity, organism-based, Sprague-Dawley
Parameters: regimen Daily Repeat, gender Male, age 6-8 weeks
Conditions: in vivo, po, route oral GAVAGE, vehicle 100 % WATER; for ALANINE AMINOTRANSFERASE / ALBUMIN / ALKALINE PHOSPHATASE / ASPARTATE AMINOTRANSFERASE / BLOOD UREA NITROGEN / CARBON DIOXIDE / CHLORIDE / CHOLESTEROL / CREATINE PHOSPHOKINASE / CREATININE / GLUCOSE / LACTATE DEHYDROGENASE / LIPASE / PHOSPHORUS / POTASSIUM / SODIUM / TOTAL BILIRUBIN / TOTAL PROTEIN / URIC ACID: tissue Plasma
[1] = 850 mg/kg, 72 h, tissue Blood, dose level M1, time 3 day
[2] = 850 mg/kg, 72 h, dose level M1, time 3 day
[3] = 850 mg/kg, 120 h, tissue Blood, dose level M1, time 5 day
[4] = 850 mg/kg, 120 h, dose level M1, time 5 day

CCCC(CCC)C(=O)O [VALPROIC ACID]
ABSOLUTE LYMPHOCYTE [1]: 8722.33 CELLS/uL
ABSOLUTE MONOCYTE [1]: 267.67 CELLS/uL
ABSOLUTE SEGMENTED NEUTROPHIL [1]: 836 CELLS/uL
BASOPHIL [1]: 0%
EOSINOPHIL [1]: 0.33%
ERYTHROCYTE COUNT [1]: 5.4 x10E6/uL
HEMATOCRIT [1]: 35.27%
LEUKOCYTE COUNT [1]: 9.87 x10E3/uL
LYMPHOCYTE [1]: 89%
MEAN CORPUSCULAR HEMOGLOBIN [1]: 25.37 pg
MEAN CORPUSCULAR HEMOGLOBIN CONCENTRATION [1]: 38.73 G/DL
MEAN CORPUSCULAR VOLUME [1]: 65.5 fL
MONOCYTE [1]: 2.67%
NEUTROPHIL [1]: 8%
NUCLEATED RED BLOOD CELLS [1]: 0 /100WBC
PLATELET COUNT [1]: 1024 x10E3/uL
ALANINE AMINOTRANSFERASE [2]: 50 u/L
ALBUMIN [2]: 3.97 G/DL
ALKALINE PHOSPHATASE [2]: 196.67 u/L
ASPARTATE AMINOTRANSFERASE [2]: 87.67 u/L
BLOOD UREA NITROGEN [2]: 13 mg/dL
CARBON DIOXIDE [2]: 29 mmol/L
CHLORIDE [2]: 99.33 MEQ/L
CHOLESTEROL [2]: 57.67 mg/dL
CREATINE PHOSPHOKINASE [2]: 134.67 u/L
CREATININE [2]: 0.11 mg/dL
GLUCOSE [2]: 145.67 mg/dL
LACTATE DEHYDROGENASE [2]: 142.67 u/L
LIPASE [2]: 9.33 u/L
PHOSPHORUS [2]: 11.37 mg/dL
POTASSIUM [2]: 6.32 MEQ/L
SODIUM [2]: 143.5 MEQ/L
TOTAL BILIRUBIN [2]: 0.23 mg/dL
TOTAL PROTEIN [2]: 5.33 G/DL
URIC ACID [2]: 1.57 mg/dL
ABSOLUTE BASOPHIL [3]: 0 CELLS/uL
ABSOLUTE EOSINOPHIL [3]: 50 CELLS/uL
ABSOLUTE LYMPHOCYTE [3]: 6795.67 CELLS/uL
ABSOLUTE MONOCYTE [3]: 121.33 CELLS/uL
ABSOLUTE SEGMENTED NEUTROPHIL [3]: 433 CELLS/uL
BASOPHIL [3]: 0%
EOSINOPHIL [3]: 0.67%
ERYTHROCYTE COUNT [3]: 5.21 x10E6/uL
HEMATOCRIT [3]: 33.77%
LEUKOCYTE COUNT [3]: 7.4 x10E3/uL
LYMPHOCYTE [3]: 92%
MEAN CORPUSCULAR HEMOGLOBIN [3]: 24.63 pg
MEAN CORPUSCULAR HEMOGLOBIN CONCENTRATION [3]: 38 G/DL
MEAN CORPUSCULAR VOLUME [3]: 64.83 fL
MONOCYTE [3]: 1.67%
NEUTROPHIL [3]: 5.67%
NUCLEATED RED BLOOD CELLS [3]: 0 /100WBC
PLATELET COUNT [3]: 851.33 x10E3/uL
ALANINE AMINOTRANSFERASE [4]: 58.33 u/L
ALBUMIN [4]: 3.83 G/DL
ALKALINE PHOSPHATASE [4]: 272 u/L
ASPARTATE AMINOTRANSFERASE [4]: 99 u/L
BLOOD UREA NITROGEN [4]: 12.67 mg/dL
CARBON DIOXIDE [4]: 31.67 mmol/L
CHLORIDE [4]: 100 MEQ/L
CHOLESTEROL [4]: 60 mg/dL
CREATINE PHOSPHOKINASE [4]: 402 u/L
CREATININE [4]: 0.28 mg/dL
GLUCOSE [4]: 139.67 mg/dL
LACTATE DEHYDROGENASE [4]: 186.33 u/L
LIPASE [4]: 11 u/L
PHOSPHORUS [4]: 11.17 mg/dL
POTASSIUM [4]: 6.05 MEQ/L
SODIUM [4]: 143.73 MEQ/L
TOTAL BILIRUBIN [4]: 0.2 mg/dL
TOTAL PROTEIN [4]: 5.83 G/DL
URIC ACID [4]: 0.5 mg/dL
ABSOLUTE BASOPHIL (1500 mg/kg, 72 h, tissue Blood, dose level High, time 3 day): 0 CELLS/uL
